For test [1], the system named is Swiss albino mice and Guinea pigs. Nature of the test: Plasma triglyceride and total cholesterol lowering activity in Swiss albino mice and Guinea pigs. It is filed as in vivo. The following applies: 3 mg/kg orally for 6 days; species of the table not stated (Swiss albino mice / Guinea pigs). How it is done: C) Plasma Triglyceride and Total Cholesterol Lowering Activity in Swiss Albino Mice and Guinea Pigs Male Swiss albino mice (SAM) and male Guinea pigs were obtained from NIN and housed in DRF animal house. All these animals were maintained under 12 hour light and dark cycle at 25±1° C. Animals were given standard laboratory chow (NIN, Hyderabad. India) and water, ad libitum. […] C. Effects of fenofibrate, gemfibrozil and nicotinic acid on plasma lipoprotein levels in normal and hyperlipidemic mice. Atherosclerosis. 1988, 70: 107-114). […] Control mice were treated with vehicle (0.25% Carboxymethylcellulose; dose 10 ml/kg). […] Control animals were treated with vehicle (0.25% Carboxymethylcellulose; dose 5 ml/kg). The blood samples were collected in fed state 1 hour after drug administration on 0 and 6 day of treatment. The blood was collected from the retro-orbital sinus through heparinised capillary in EDTA containing tubes. After centrifugation, plasma sample was separated for triglyceride and total cholesterol (Wieland, O. Methods of Enzymatic analysis. Bergermeyer, H. O., Ed., 1963. 211-214; Trinder, P. Ann. Clin. Biochem. 1969, 6: 24-27). […] Percent reduction in Blood sugar/triglycerides/total cholesterol were calculated according to the formula: [formula] […] LDL and VLDL cholesterol levels were calculated according to the formula: […]

The test system of test [2] is C57BL/KsJ-db/db mice. The test is described as follows: Blood sugar and triglyceride lowering in db/db mice (genetic model). It is filed as in vivo. The text has this: Mutation in colonies of laboratory animals and different sensitivities to dietary regimens have made the development of animal models with non-insulin dependent diabetes and hyperlipidemia associated with obesity and insulin resistance possible. Genetic models such as db/db and ob/ob (Diabetes, (1982) 31(1): 1-6) mice and zucker fa/fa rats have been developed by the various laboratories for understanding the pathophysiology of disease and testing the efficacy of new antidiabetic compounds (Diabetes, (1983) 32: 830-838; Annu. Rep. Sankyo Res. Lab. (1994). 46: 1-57). The homozygous animals, C57 BL/KsJ-db/db mice developed by Jackson Laboratory, U.S., are obese, hyperglycemic, hyperinsulinemic and insulin resistant (J. Clin. Invest., (1990) 85: 962-967), whereas heterozygous are lean and normoglycemic. In db/db model, mouse progressively develops insulinopenia with age, a feature commonly observed in late stages of human type II diabetes when blood sugar levels are insufficiently controlled. The state of pancreas and its course vary according to the models. Since this model resembles that of type II diabetes mellitus, the compounds of the present invention were tested for blood sugar and triglycerides lowering activities. Male C57BL/KsJ-db/db mice of 8 to 14 weeks age, having body weight range of 35 to 60 grams, bred at Dr. Reddy's Research Foundation (DRF) animal house, were used in the experiment. The mice were provided with standard feed (National Institute of Nutrition (NIN), Hyderabad, India) and acidified water, ad libitum. The animals having more than 350 mg/dl blood sugar were used for testing. The number of animals in each group was 4. […] The control group received vehicle (dose 10 ml/kg). On 6th day the blood samples were collected one hour after administration of test compounds/vehicle for assessing the biological activity. The random blood sugar and triglyceride levels were measured by collecting blood (100 μl) through orbital sinus, using heparinised capillary in tubes containing EDTA which was centrifuged to obtain plasma. The plasma glucose and triglyceride levels were measured spectrometrically, by glucose oxidase and glycerol-3-PO4 oxidase/peroxidase enzyme (Dr. Reddy's Lab. Diagnostic Division Kits, Hyderabad, India) methods respectively. The blood sugar and triglycerides lowering activities of the test compound was calculated according to the formula. Formulae for Calculation: 1. Percent reduction in Blood sugar/triglycerides/total cholesterol were calculated according to the formula: [formula] OC=Zero day control group value OT=Zero day treated group value TC=Test day control group value TT=Test day treated group value 2. LDL and VLDL cholesterol levels were calculated according to the formula: […]

The test system of test [3] is hypercholesterolemic Sprague Dawley rats. Particulars: rat, in vivo, po, 1 mg/kg.
The subject of test [4] is cholesterol fed Syrian Hamsters. The following applies: hamster, in vivo, po, 10 mg/kg/day.
The mark [5] stands for this setting: 10 mg/kg oral gavage daily for 6 days.
The mark [6] stands for this setting: 3 mg/kg oral gavage daily for 6 days.

With `CCOC(Cc1ccc(OCC2CN(Cc3ccccc3)c3ccccc3O2)cc1)C(=O)[O-].[Na+]` (racemic) [Example 63, (±) 3-[4-(4-Benzyl-3,4-dihydro-1,4-benzoxazin-2-yl)methoxyphenyl]-2-ethoxy propanoic acid, sodium salt], the “Triglyceride Lowering (%)” value in test [1] came out at 57%.
Consider `CCOC(Cc1ccc2cc(OCCN3CCSc4ccccc43)ccc2c1)C(=O)[O-].[Na+]` (racemic) [Example 44], for which, in test [2] (setting [5]), the “Reduction in Blood Glucose Level (%)” value is listed as 47% and the “Triglyceride Lowering (%)” value was 74%. Moreover, in test [3], the “HDL (%) ↑ increase” value amounted to 46%, the “LDL (%) ↓ reduction” value is listed as 44%, the “Total Cholesterol (%) ↓ reduction” value is listed as 42% and the “Triglyceride (%) ↓ reduction” value is 50%. Further, the “VLDL (%) ↓ reduction” value in test [3] was determined as 53%.
For the compound `CCCCOC(Cc1ccc(OCCN2CCOc3ccccc32)cc1)C(=O)[O-].[Na+]` (racemic) [Example 50, (±) 3-[4-[2-(2,3-Dihydro-1,4-benzoxazin-4-yl)ethoxy]phenyl]-2-butoxypropanoic acid, sodium salt], in test [2] (setting [6]), the “Reduction in Blood Glucose Level (%)” value is 45% and the “Triglyceride Lowering (%)” value is on record as 23%.
With `CCOC(Cc1ccc(OCCN2CCSc3ccccc32)cc1)C(=O)[O-].[Na+]` (racemic) [Example 30, (±) 3-[4-[2(2,3-Dihydro-1,4-benzothiazin-4-yl)ethoxy]phenyl]-2-ethoxypropanoic acid, sodium salt], the “Body weight Reduction (%)” value in test [4] was determined as 18%.

(Values after patent US7348426B1, “Substituted bicyclic heterocycles, process for their preparation and their use as antiobesity and hypocholesterolemic agents” (Dr. Reddy's Laboraties Limited, priority 1999, dated 2008).)
